Assay results from ChEMBL document CHEMBL1145320, “3,4,5-Trisubstituted isoxazoles as novel PPARdelta agonists: Part 1” (Bioorg Med Chem Lett, 2006).

Key:
[1] = molecular target: T1, Peroxisome proliferator-activated receptor alpha (Homo sapiens, UniProt Q07869); test: Agonist activity at PPARalpha by transactivation assay; format: functional
T1 sequence (Q07869 whole entry): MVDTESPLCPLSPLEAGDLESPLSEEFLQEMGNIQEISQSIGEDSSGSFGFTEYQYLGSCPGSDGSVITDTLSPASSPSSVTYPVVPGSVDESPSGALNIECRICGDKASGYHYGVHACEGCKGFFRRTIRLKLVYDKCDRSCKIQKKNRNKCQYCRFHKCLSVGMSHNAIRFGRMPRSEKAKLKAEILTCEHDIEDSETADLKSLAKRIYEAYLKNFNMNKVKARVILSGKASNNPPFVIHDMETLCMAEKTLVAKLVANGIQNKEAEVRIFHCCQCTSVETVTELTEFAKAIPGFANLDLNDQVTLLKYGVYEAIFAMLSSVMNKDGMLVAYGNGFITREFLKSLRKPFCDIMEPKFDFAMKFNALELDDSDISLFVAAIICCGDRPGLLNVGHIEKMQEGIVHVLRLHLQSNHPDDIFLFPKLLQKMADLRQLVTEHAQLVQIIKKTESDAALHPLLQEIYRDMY

[2] = molecular target: T2, Peroxisome proliferator-activated receptor gamma (Homo sapiens, UniProt P37231); test: Agonist activity at PPARgamma by transactivation assay; format: functional
T2 sequence (P37231 whole entry): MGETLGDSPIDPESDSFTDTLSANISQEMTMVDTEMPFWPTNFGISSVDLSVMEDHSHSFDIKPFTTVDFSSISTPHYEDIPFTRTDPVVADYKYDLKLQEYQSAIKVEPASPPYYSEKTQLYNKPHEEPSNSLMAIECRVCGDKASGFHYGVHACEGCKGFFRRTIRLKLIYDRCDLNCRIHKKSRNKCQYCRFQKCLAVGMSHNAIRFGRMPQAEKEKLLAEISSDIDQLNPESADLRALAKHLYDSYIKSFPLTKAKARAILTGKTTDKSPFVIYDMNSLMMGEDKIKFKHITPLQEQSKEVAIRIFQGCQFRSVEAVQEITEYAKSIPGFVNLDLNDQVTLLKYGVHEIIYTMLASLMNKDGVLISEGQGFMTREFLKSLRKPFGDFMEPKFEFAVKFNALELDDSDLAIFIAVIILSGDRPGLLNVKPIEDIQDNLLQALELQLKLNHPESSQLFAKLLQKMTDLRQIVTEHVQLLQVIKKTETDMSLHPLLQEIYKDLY

[3] = molecular target: T3, Peroxisome proliferator-activated receptor delta (Homo sapiens, UniProt Q03181)
T3 sequence (Q03181 whole entry): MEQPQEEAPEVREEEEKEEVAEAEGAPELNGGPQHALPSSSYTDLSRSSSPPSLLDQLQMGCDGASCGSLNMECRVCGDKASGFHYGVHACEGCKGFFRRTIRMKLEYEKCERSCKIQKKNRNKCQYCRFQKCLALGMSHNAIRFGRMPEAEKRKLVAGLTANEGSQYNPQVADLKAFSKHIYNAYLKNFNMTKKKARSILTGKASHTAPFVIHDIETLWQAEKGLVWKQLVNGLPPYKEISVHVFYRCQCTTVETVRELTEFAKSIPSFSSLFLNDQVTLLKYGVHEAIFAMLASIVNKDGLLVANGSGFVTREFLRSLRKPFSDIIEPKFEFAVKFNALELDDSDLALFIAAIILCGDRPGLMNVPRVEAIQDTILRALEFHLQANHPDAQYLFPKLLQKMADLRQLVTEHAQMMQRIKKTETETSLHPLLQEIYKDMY
Description: (§1) Agonist activity at PPARdelta by transactivation assay

[4] = molecular target: T3, Peroxisome proliferator-activated receptor delta; remark: listed apart in the source
Description: as §1

Row | Compound | EC50 ([1]; read-out: EC50) [nM] | EC50 ([2]; read-out: EC50) [nM] | EC50 [3] [nM] | EC50 [1] | EC50 [2] | EC50 [4]
1 | Cc1onc(-c2ccc(CC(=O)O)cc2Cl)c1C(=O)NCCOc1ccc(C(F)(F)F)cc1 | > 10000 | > 10000 | > 10000 |  |  | 
2 | CN(CCOc1ccc(Cl)cc1Cl)C(=O)c1c(-c2ccc(CC(=O)O)cc2Cl)noc1-c1ccccc1 | > 10000 | > 10000 | 3670 |  |  | 
3 | O=C(O)Cc1ccc(-c2noc(-c3ccccc3)c2C(=O)NCCOc2ccc(Cl)cc2Cl)c(Cl)c1 | > 10000 | > 10000 | 80 |  |  | 
4 | Cc1cc(SCc2cc(-c3c(Cl)cccc3Cl)no2)ccc1OCC(=O)O |  |  |  | Not Active | Not Active | Not Active
5 | O=C(O)Cc1ccc(-c2noc(C(=O)CCCOc3ccc(Cl)cc3Cl)c2-c2ccccc2)c(Cl)c1 |  |  |  | Not Active | Not Active | Not Active
6 | O=C(O)Cc1ccc(-c2noc(-c3ccco3)c2C(=O)NCCOc2ccc(Cl)cc2Cl)c(Cl)c1 | > 10000 | > 10000 | 10 |  |  | 
7 | CC(C)(C)c1onc(-c2ccc(CC(=O)O)cc2Cl)c1C(=O)NCCOc1ccc(Cl)cc1Cl | > 10000 | > 10000 | 2590 |  |  | 
8 | O=C(O)Cc1ccc(-c2noc(C3CC3)c2C(=O)NCCOc2ccc(Cl)cc2Cl)c(Cl)c1 | 1670 | 3230 | 30 |  |  | 
9 | Cc1onc(-c2ccc(CC(=O)O)cc2Cl)c1COCCOc1ccc(C(F)(F)F)cc1[N+](=O)[O-] | 220 | > 10000 | 130 |  |  | 
10 | Cc1onc(-c2ccc(CC(=O)O)cc2Cl)c1C(=O)NCCOc1ccc(C(F)(F)F)cc1[N+](=O)[O-] | 340 | 1250 | 4 |  |  | 
11 | O=C(O)Cc1ccc(-c2noc(-c3ccccc3)c2C(=O)CCCOc2ccc(Cl)cc2Cl)c(Cl)c1 | > 10000 | > 10000 | 30 |  |  | 
12 | Cc1onc(-c2ccc(CC(=O)O)cc2Cl)c1C(=O)NCCOc1ccc(C(F)(F)F)cc1C(F)(F)F | > 10000 | > 10000 | 260 |  |  | 
13 | CC(C)c1onc(-c2ccc(CC(=O)O)cc2Cl)c1C(=O)NCCOc1ccc(Cl)cc1Cl | 7110 | > 10000 | 90 |  |  | 
14 | Cc1onc(-c2ccc(CC(=O)O)cc2Cl)c1C(=O)NCCOc1ccc(Cl)cc1Cl | > 10000 | > 10000 | 310 |  |  | 
15 | Cc1onc(-c2ccc(CC(=O)O)cc2Cl)c1C(=O)NCCOc1ccccc1[N+](=O)[O-] | > 10000 | > 10000 | > 10000 |  |  | 
16 | CCc1onc(-c2ccc(CC(=O)O)cc2Cl)c1C(=O)NCCOc1ccc(Cl)cc1Cl | > 10000 | > 10000 | 110 |  |  | 
17 | O=C(O)Cc1ccc(-c2noc(-c3ccccc3)c2COCCOc2ccc(Cl)cc2Cl)c(Cl)c1 | > 10000 | > 10000 | 190 |  |  | 
18 | Cc1onc(-c2c(Cl)cccc2Cl)c1C(=O)OCCOc1ccc(C(F)(F)F)cc1[N+](=O)[O-] | > 10000 | > 10000 | 230 |  |  | 
